Holding throughout (format): ADME
A short description of data set [1]: Drug uptake in C57BL/6J mouse neuronal cytosol at 100 uM after 1 min by confocal microscopy co-treated with 20 uM 2-TRLG.
Data set [2] is described as follows: Drug uptake in C57BL/6J mouse neuronal cytosol at 20 uM after 1 min by confocal microscopy co-treated with 100 uM 2-NBDLG.
A short description of data set [3]: Drug uptake in C57BL/6J mouse neuronal cytosol at 20 uM after 1 min by confocal microscopy co-treated with 100 uM 2-NBDG.

Regarding `O=[N+]([O-])c1ccc(N[C@H]2C(O)O[C@H](CO)[C@@H](O)[C@@H]2O)c2nonc12` (stereo partly specified), in data set [1], the Drug uptake entry is “Active”. Consider `O=S(=O)([O-])c1cc(S(=O)(=O)N[C@@H]2C(O)O[C@@H](CO)[C@H](O)[C@H]2O)ccc1C1=c2cc3c4c(c2Oc2c1cc1c5c2CCCN5CCC1)CCC[N+]=4CCC3` (stereo partly specified), for which the Drug uptake result in data set [2] is “Active”; in data set [3], “Not Active”. `O=S(=O)([O-])c1ccc(C2=c3cc4c5c(c3Oc3c2cc2c6c3CCCN6CCC2)CCC[N+]=5CCC4)c(S(=O)(=O)N[C@@H]2C(O)O[C@@H](CO)[C@H](O)[C@H]2O)c1` (stereo partly specified): the values for the Drug uptake result in data set [2] and in data set [3] were “Active” and “Not Active”, respectively. Regarding `O=[N+]([O-])c1ccc(N[C@@H]2C(O)O[C@@H](CO)[C@H](O)[C@H]2O)c2nonc12` (stereo partly specified), in data set [1], the Drug uptake entry is “Not Active”.

Values taken from ChEMBL document CHEMBL1795315, “Syntheses of 2-NBDG analogues for monitoring stereoselective uptake of D-glucose” (Bioorg Med Chem Lett, 2011).
